Test results published in US20260200927A1, “NON PEPTIDERGIC AGONISTS OF OXYTOCIN RECEPTOR” (UNIVERSITE DE STRASBOURG, priority 2022, published 2026).

Assays:
[1] = molecular target: V1A-R (Homo sapiens, UniProt P37288); test: V1A receptor antagonism measured as calcium signal; assay type: cell-based; settings: antagonist, n = 3, read-out: V1A-R (Antago) IC50
[2] = molecular target: T1, oxytocin receptor (Homo sapiens, UniProt P30559); test: IP-One IP1 accumulation assay in CHO cell lines expressing oxytocin receptor (agonism); assay type: cell-based; settings: CHO cells expressing oxytocin receptor, n = 3, read-out: OT-R EC50
T1 construct: expressed in transfected cells; host or cells: CHO cell lines
T1 sequence (P30559 1-389): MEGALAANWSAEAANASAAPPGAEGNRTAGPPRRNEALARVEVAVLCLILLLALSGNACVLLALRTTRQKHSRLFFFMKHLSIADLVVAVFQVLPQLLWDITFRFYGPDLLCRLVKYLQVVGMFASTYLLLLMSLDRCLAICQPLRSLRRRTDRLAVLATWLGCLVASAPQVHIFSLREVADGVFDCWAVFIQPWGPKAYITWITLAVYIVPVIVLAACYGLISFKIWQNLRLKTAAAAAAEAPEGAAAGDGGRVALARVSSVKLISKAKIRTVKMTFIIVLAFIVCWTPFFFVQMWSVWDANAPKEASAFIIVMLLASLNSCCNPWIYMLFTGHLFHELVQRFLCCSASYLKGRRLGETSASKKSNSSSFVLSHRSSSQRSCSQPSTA
Description: The activation constants (EC50 in nM) were measured in CHO cell lines expressing oxytocin receptor by IP-One IP1 accumulation assay. These values are the mean±SEM of at least three separate experiments performed in triplicate.

[3] = cited from earlier work

V1A-R, sequence (P37288 whole entry, species assumed): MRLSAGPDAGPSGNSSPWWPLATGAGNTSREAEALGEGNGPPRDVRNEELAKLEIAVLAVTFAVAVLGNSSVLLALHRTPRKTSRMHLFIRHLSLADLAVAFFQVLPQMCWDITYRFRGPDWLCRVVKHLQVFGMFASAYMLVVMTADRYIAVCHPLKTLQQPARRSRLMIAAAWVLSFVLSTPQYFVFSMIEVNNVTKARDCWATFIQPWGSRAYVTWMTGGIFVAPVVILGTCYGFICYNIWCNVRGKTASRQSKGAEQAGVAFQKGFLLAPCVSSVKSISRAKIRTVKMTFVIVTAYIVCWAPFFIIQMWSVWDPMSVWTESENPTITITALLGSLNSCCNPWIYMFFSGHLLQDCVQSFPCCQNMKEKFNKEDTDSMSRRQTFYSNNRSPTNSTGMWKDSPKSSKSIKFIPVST

Cc1cc(C(=O)N2Cc3cnn(C)c3Nc3ccccc32)ccc1CNC(=O)N1C[C@H](F)C[C@H]1C(=S)N(C)C [Compound 1]
IC50 [1]: 0.25 µM

CO[C@@H]1C[C@@H](C(=S)N(C)C)N(C(=O)NCc2ccc(C(=O)N3Cc4cnn(C)c4Nc4ccccc43)cc2C)C1 [Compound 3]
EC50 [2]: 0.033 µM

Cc1cc(C(=O)N2Cc3cnn(C)c3Nc3ccccc32)ccc1CNC(=O)N1C[C@H](OCCCO)C[C@H]1C(=S)N(C)C [Compound 6, (2S,4R)-2-(dimethylcarbamothioyl)-4-(3-hydroxypropoxy)-N-[(2-methyl-4-4-methyl-2,4,5,9-tetraazatricyclo[8.4.0.0,3,7]tetradeca-1(14),3(7),5,10,12-pentaene-9-carbonylphenyl)methyl]pyrrolidine-1-carboxamide]
EC50 [2]: 0.0298 µM

Cc1cc(C(=O)N2Cc3cnn(C)c3Nc3ccccc32)ccc1CNC(=O)N1C[C@H](OCCCCO)C[C@H]1C(=S)N(C)C [Compound 7, (2S,4R)-2-(dimethylcarbamothioyl)-4-(4-hydroxybutoxy)-N-[(2-methyl-4-4-methyl-2,4,5,9-tetraazatricyclo[8.4.0.0,3,7]tetradeca-1(14),3(7),5,10,12-pentaene-9-carbonylphenyl)methyl]pyrrolidine-1-carboxamide]
EC50 [2]: 0.0116 µM

Cc1cc(C(=O)N2Cc3cnn(C)c3Nc3ccccc32)ccc1CNC(=O)N1C[C@H](OCc2cccc(S(N)(=O)=O)c2)C[C@H]1C(=S)N(C)C [Compound 13, (2S,4R)-2-(dimethylcarbamothioyl)-N-[(2-methyl-4-4-methyl-2,4,5,9-tetraazatricyclo[8.4.0.0,3,7]tetradeca-1(14),3(7),5,10,12-pentaene-9-carbonylphenyl)methyl]-4-[(3-sulfamoylphenyl)methoxy]pyrrolidine-1-carboxamide]
EC50 [2]: 0.033 µM

Cc1cc(C(=O)N2Cc3cnn(C)c3Nc3ccccc32)ccc1CNC(=O)N1C[C@H](OCc2nnn[nH]2)C[C@H]1C(=S)N(C)C [Compound 19, (2S,4R)-2-(dimethylcarbamothioyl)-N-[(2-methyl-4-4-methyl-2,4,5,9-tetraazatricyclo[8.4.0.0,3,7]tetradeca-1(14),3(7),5,10,12-pentaene-9-carbonylphenyl)methyl]-4-[(1H-1,2,3,4-tetrazol-5-yl)methoxy]pyrrolidine-1-carboxamide]
EC50 [2]: 0.0174 µM

Cc1cc(C(=O)N2Cc3cnn(C)c3Nc3ccccc32)ccc1CNC(=O)N1CC(OCCC2NC(=O)NC2=O)CC1C(=S)N(C)C [Compound 21, (2S,4R)-2-(dimethylcarbamothioyl)-4-[2-(2,5-dioxoimidazolidin-4-yl)ethoxy]-N-[(2-methyl-4-4-methyl-2,4,5,9-tetraazatricyclo[8.4.0.0,3,7]tetradeca-1(14),3(7),5,10,12-pentaene-9-carbonylphenyl)methyl]pyrrolidine-1-carboxamide]
EC50 [2]: 0.0144 µM

CC[C@H](C)[C@@H]1NC(=O)[C@H](Cc2ccc(O)cc2)NC(=O)[C@@H](N)CSSC[C@@H](C(=O)N2CCC[C@H]2C(=O)N[C@@H](CC(C)C)C(=O)NCC(N)=O)NC(=O)[C@H](CC(N)=O)NC(=O)[C@H](CCC(N)=O)NC1=O [OT]
half-life in blood [3]: about 3 minute
